According to patent publication US20190316081A1, “MEDIA AND METHODS FOR EXPANSION OF PLURIPOTENT STEM CELLS” (priority 2018, published 2019):
Each block holds one compound with its values, some of them ahead of it.

Tests used:
Assay type in all cases: cell-based, human
5i-hPSC = assay: Medium component screen and PD dose response on OCT4/SOX2 pluripotent phenotype, feeder-free adherent and suspension
Protocol: For intracellular staining, dissociated cells were fixed with 4% paraformadehyde (Electron Microscopy Sciences) for 10 minutes and permeabilized with 0.1% Triton™ X-100 (Sigma-Aldrich). Cells were then stained with the primary antibody (OCT4, BD Biosciences; SOX2, R&D; FOXA2, Abnova; cTNT, Thermo Fisher Scientific; TUBB3, Cell Signaling; PDX1, R&D; NKX6.1, DSHB) for 25 minutes followed by the secondary antibody for 25 minutes at 4° C. Stained cells were analyzed on a FACSCanto™ II (BD) or FACS Fortessa™ (BD) flow cytometer.
Statistical analysis was performed using the JMP software (SAS). Parametric tests were used for qpcr, doubling time, and maximum density experiments, with the Student's T-test used for 2 treatment experiments and Tukey's HSD test used for experiments with 3 or more treatments. A non-parametric test (Kruskal-Wallis) was used for colony formation experiments since this assay was developed specifically for this study. […] The linear regression model was developed in Excel (Microsoft®).
To test this hypothesis, a 96 well plate platform was designed to screen the effects of medium components on 5i-hPSC pluripotency in suspension cultures and in feeder-free adherent cultures (FIG. 8A). To examine the effects of adherent culture on pluripotency, a Geltrex™ coating was used to obtain an adherent culture condition in the absence of a feeder layer. […]

PSC (HES2) [1] = assay: Orbital shaker suspension culture of PSC aggregates with dextran sulfate; conditions: for aggregate control properties in PSC: data not shown
Protocol: In brief, HES2 were cultured on Geltrex™ LDEV-Free Reduced Growth Factor Basement Membrane Matrix (Thermo Fisher Scientific, 1:50 dilution in DMEM) coated plates in Nutristem® hESC XF Culture Medium (Biological Industries, “NS”) or E8 Medium (Thermo Fisher Scientific), supplemented with 1× Penicillin-Streptomycin (Thermo Fisher Scientific). Plates were coated with Geltrex™ for 30 minutes at 37° C. Cells were passaged 1:24 every 6 days by dissociation with TrypLE™ Express (Thermo Fisher Scientific) at 37° C. for 4-5 minutes. All cell line stocks were confirmed negative for mycoplasma contamination. Conversion to a “naïve” hPSC state was performed as described previously^35. Dextran sulfate compounds (DS, Sigma) were prepared by dilution in deionized water at a stock concentration of 100 mg/mL followed by filter sterilization.
(§1) Six well culture plates were pre-coated with 5% Pluronic F-68® (Thermo Fisher Scientific) for 30 minutes at 37° C. or overnight at 4° C. Dissociation of PSC to single cells was carried out by TrypLE™ Express (Thermo Fisher Scientific) treatment for 5 minutes at room temperature. Single cells were seeded into the Pluronic F-68® coated 6-well plates that were then placed on an orbital shaker with 10 μM Y-27632 (Reagents Direct) in normoxic (21% 02) conditions. Cells were seeded at densities of 2×10^5 cells/mL unless otherwise noted. Medium was exchanged by angling the plate at a 45° angle and allowing aggregates to settle onto the bottom edge. Two days after seeding, half of the growth medium was removed and replaced each day. Cells were harvested at the end of culture by dissociation with a 5 minute TrypLE™ treatment at 37° C. and cell counts were performed by Trypan Blue exclusion (Thermo Fisher Scientific). Bioreactor experiments were conducted following manufacturer instructions for operating the Ambr™-24 bioreactor system (Sartorius). Cell dissociation and medium exchange were performed as described above. Bioreactors were operated at 450 rpm and seeded with 4×10^5 cells/mL unless otherwise noted. Aggregates were analyzed using the Mastersizer™ 3000 particle analyzer (Malvern) according to manufacturer's instructions. Unless otherwise noted, the 560 μm aperture was used for analysis. Aggregates were dissociated and seeded into adherent conditions after 3 passages in suspension with DS. Directed differentiation into all three germ layers was performed as described previously for endoderm^40, mesoderm^41, and ectoderm^42 lineages. G-Band karyotyping was performed by WiCell.
Statistical analysis was performed in Excel software (Microsoft®). […] Coefficient of variation was calculated by estimating the volume of each aggregate from its diameter, calculating the standard deviation of each treatment, and normalizing to the mean. […]

PSC (HES2) [2] = assay: Stirred tank bioreactor suspension culture of PSC with dextran sulfate; conditions: stirred tank bioreactors seeded with DS, 3 passages
Protocol: as §1, with “Bioreactors were operated at 450 rpm and seeded with 4×10^5 cells/mL unless otherwise noted.” left out, “Unless otherwise noted, the 560 μm aperture was used for analysis. Aggregates were dissociated and seeded into adherent conditions after 3 passages in suspension with DS. Directed differentiation into all three germ layers was performed as described previously for endoderm^40, mesoderm^41, and ectoderm^42 lineages. G-Band karyotyping was performed by WiCell.” left out
Apoptosis analysis was conducted using Annexin V staining. […] Cells were analyzed on a FACS Canto™ II (BD) or FACS Fortessa™ (BD) flow cytometer. […]

PSC = assay: Karyotype and germ layer differentiation of DS treated PSC
Protocol: Six well culture plates were pre-coated with 5% Pluronic F-68® (Thermo Fisher Scientific) for 30 minutes at 37° C. or overnight at 4° C. Dissociation of PSC to single cells was carried out by TrypLE™ Express (Thermo Fisher Scientific) treatment for 5 minutes at room temperature. […] Cells were seeded at densities of 2×10^5 cells/mL unless otherwise noted. Medium was exchanged by angling the plate at a 45° angle and allowing aggregates to settle onto the bottom edge. Two days after seeding, half of the growth medium was removed and replaced each day. Cells were harvested at the end of culture by dissociation with a 5 minute TrypLE™ treatment at 37° C. and cell counts were performed by Trypan Blue exclusion (Thermo Fisher Scientific). […] Aggregates were dissociated and seeded into adherent conditions after 3 passages in suspension with DS. Directed differentiation into all three germ layers was performed as described previously for endoderm^40, mesoderm^41, and ectoderm^42 lineages. G-Band karyotyping was performed by WiCell.

H9 hPSC = assay: Aggregation control by DS in conventional and naive conditions; conditions: conventional and naive pluripotent states
HES2 and H9 cell lines = assay: 4i suspension culture supplemented with dextran sulfate; conditions: dextran sulfate at seeding
Protocol: HES2 and H9 hPSC were cultured in adherent conditions in 5i medium for >5 passages. Cells were dissociated with TrypLE™ as described previously and seeded as single cells into 4i medium in the presence of ROCK inhibitor into orbital shaker suspension culture plates (pre-treated with 5% Pluronic® F-68) in the presence of dextran sulfate at seeding. Half of the medium volume was exchanged every day starting on the second day by tilting the plate at a 45 degree angle and allowing cells to settle before removing half of the medium and replenishing it with fresh 4i medium without dextran sulfate.

Compound: O=C(NOC[C@H](O)CO)c1ccc(F)c(F)c1Nc1ccc(I)cc1F [PD, N-[(2R)-2,3-dihydroxypropoxy]-3,4-difluoro-2-[(2-fluoro-4-iodophenyl)amino]-benzamide]
- correlation of PD level to pluripotent phenotype (5i-hPSC; feeder-free adherent and suspension): negatively correlated
- linear regression coefficient of PD level on OCT4/SOX2 expression (5i-hPSC; model with growth format and interaction, 56 observations): −27.0584

- karyotype (PSC; 9 passages (5 adherent, 4 suspension)): retained a normal karyotype
Compound: dextran sulfate [DS]
- homogeneity of aggregate sizes (PSC (HES2) [1]; orbital shaker, 4 days): reduced standard deviations and lower coefficients of variation of aggregate volume
- aggregate diameter (PSC (HES2) [1]; orbital shaker, DS of 4, 15 and 40 kDa at varied concentration): significantly reduced diameters in a dose-dependent fashion
- expression of pluripotency markers Oct4 and Sox2 (PSC (HES2) [2]): > 85%
- differentiation to three germ layers (PSC; after 9 passages with DS): maintained the ability to differentiate to cell types from all three germ layers
- control of aggregation (H9 hPSC): able to control H9 hPSC aggregation in both pluripotent states
- mean aggregate size and variance relative to untreated conditions (HES2 and H9 cell lines): both observed to decrease

Compound: heparin
- aggregate control properties in PSC (PSC (HES2) [1]): displayed aggregate control properties

Compound: pentosan polysulfate
- aggregate control properties in PSC (PSC (HES2) [1]): displayed aggregate control properties
